Molecular target: T1, mGlyT-1b (Mus musculus, UniProt P28571)
T1 construct: host or cells: Flp-in-CHO
T1 sequence (P28571 1-651 isoform P28571-2): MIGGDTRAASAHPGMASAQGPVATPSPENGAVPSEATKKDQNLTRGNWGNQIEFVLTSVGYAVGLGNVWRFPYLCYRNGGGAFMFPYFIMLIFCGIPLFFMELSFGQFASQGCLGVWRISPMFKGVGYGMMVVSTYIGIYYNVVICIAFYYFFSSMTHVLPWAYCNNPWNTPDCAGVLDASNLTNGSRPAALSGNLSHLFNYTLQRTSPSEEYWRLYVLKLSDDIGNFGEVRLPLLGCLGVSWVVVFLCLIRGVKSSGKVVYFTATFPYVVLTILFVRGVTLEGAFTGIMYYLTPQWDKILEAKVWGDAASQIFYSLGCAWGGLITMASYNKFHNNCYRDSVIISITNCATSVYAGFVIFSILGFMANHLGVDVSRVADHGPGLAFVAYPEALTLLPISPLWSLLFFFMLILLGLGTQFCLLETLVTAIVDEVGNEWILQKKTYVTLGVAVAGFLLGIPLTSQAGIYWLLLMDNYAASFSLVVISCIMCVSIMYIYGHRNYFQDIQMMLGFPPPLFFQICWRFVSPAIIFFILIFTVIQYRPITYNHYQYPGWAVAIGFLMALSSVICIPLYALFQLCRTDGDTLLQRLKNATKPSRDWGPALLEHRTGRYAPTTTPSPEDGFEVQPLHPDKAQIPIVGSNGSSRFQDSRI
Test: Glycine uptake inhibition assay (mGlyT-1b)
Assay type: cell-based
Details: inhibition of [3H]-glycine uptake in Flp-in-CHO cells transfected with mGlyT-1b cDNA
Procedure: DMEM complete medium: Nutrient mixture F-12 (Gibco Life-technologies), fetal bovine serum (FBS) 5%, (Gibco life technologies), Penicillin/Streptomycin 1% (Gibco life technologies), Hygromycin 0.6 mg/ml (Gibco life technologies), Glutamine 1 mM Gibco life technologies)
Uptake buffer (UB): 150 mM NaCl, 10 mM Hepes-Tris, pH 7.4, 1 mM CaCl2, 2.5 mM KCl, 2.5 mM MgSO4, 10 mM (+) D-glucose. Flp-in™-CHO (Invitrogen Cat n° R758-07)cells stably transfected with mGlyT1b cDNA.
Glycine Uptake Inhibition Assay (mGlyT-1b)
On day 1 mammalian cells, (Flp-in™-CHO), transfected with mGlyT-1b cDNA, were plated at the density of 40,000 cells/well in complex F-12 medium, without hygromycin in 96-well culture plates. On day 2, the medium was aspirated and the cells were washed twice with uptake buffer (UB). The cells were then incubated for 20 min at 22° C. with either (i) no potential competitor, (ii) 10 mM non-radioactive glycine, (iii) a concentration of a potential inhibitor. A range of concentrations of the potential inhibitor was used to generate data for calculating the concentration of inhibitor resulting in 50% of the effect (e.g. IC50, the concentration of the competitor inhibiting glycine uptake of 50%). A solution was then immediately added containing [^3H]-glycine 60 nM (11-16 Ci/mmol) and 25 μM non-radioactive glycine. The plates were incubated with gentle shaking and the reaction was stopped by aspiration of the mixture and washing (three times) with ice-cold UB. The cells were lysed with scintillation liquid, shaken 3 hours and the radioactivity in the cells was counted using a scintillation counter.

| SMILES | IC50 [nM] |
| --- | --- |
| CC(C)Oc1ccc(S(C)(=O)=O)cc1C(=O)N1CCN(c2nc3cc(Cl)ccc3s2)CC1 [Example 1.14, [4-(5-Chloro-benzothiazol-2-yl)-piperazin-1-yl]-(2-isopropoxy-5-methanesulfonyl-phenyl)-methanone] | 218 |
| CS(=O)(=O)c1ccc(OCC2CC2)c(C(=O)N2CCN(c3nc4ccc(Cl)cc4s3)CC2)c1 [Example 1.39, [4-(6-Chloro-benzothiazol-2-yl)-piperazin-1-yl]-(2-cyclopropylmethoxy-5-methanesulfonyl-phenyl)-methanone] | 230 |
| CC(C)Oc1ccc(S(C)(=O)=O)cc1C(=O)N1CCN(c2cnc3ccccc3n2)CC1 [Example 1.24, (2-Isopropoxy-5-methanesulfonyl-phenyl)-(4-quinoxalin-2-yl-piperazin-1-yl)-methanone] | 287 |
| COc1ccc2nc(N3CCN(C(=O)c4cc(S(C)(=O)=O)ccc4OC(C)C)CC3)sc2c1 [Example 1.8, (2-Isopropoxy-5-methanesulfonyl-phenyl)-[4-(6-methoxy-benzothiazol-2-yl)-piperazin-1-yl]-methanone] | 174 |
| CC(C)Oc1ccc(S(C)(=O)=O)cc1C(=O)N1CCN(c2nc3ccc(Cl)cc3s2)CC1 [Example 1.2, [4-(6-Chloro-benzothiazol-2-yl)-piperazin-1-yl]-(2-isopropoxy-5-methanesulfonyl-phenyl)-methanone] | 398 |
| CC(C)COc1ccc(S(C)(=O)=O)cc1C(=O)N1CCN(c2nc3ccccc3o2)CC1 [Example 1.5, (4-Benzoxazol-2-yl-piperazin-1-yl)-(2-isobutoxy-5-methanesulfonyl-phenyl)-methanone] | 144 |
| CCOc1ccc2nc(N3CCN(C(=O)c4cc(S(C)(=O)=O)ccc4OC(C)C)CC3)sc2c1 [Example 1.15, [4-(6-Ethoxy-benzothiazol-2-yl)-piperazin-1-yl]-(2-isopropoxy-5-methanesulfonyl-phenyl)-methanone] | 339 |
| O=C(c1cc([N+](=O)[O-])ccc1N1CCOCC1)N1CCN(c2nc3ccc(Cl)cc3s2)CC1 [Example 1.1, [4-(6-Chloro-benzothiazol-2-yl)-piperazin-1-yl]-(2-morpholin-4-yl-5-nitro-phenyl) -methanone] | 271 |
| CC(C)COc1ccc(S(C)(=O)=O)cc1C(=O)N1CCN(c2cnc3ccccc3c2)CC1 [Example 1.27, (2-Isobutoxy-5-methanesulfonyl-phenyl)-(4-quinolin-3-yl-piperazin-1-yl)-methanone] | 82 |
| O=C(c1cc([N+](=O)[O-])ccc1N1CCOCC1)N1CCN(c2nsc3ccccc23)CC1 [Example 1.31, (4-Benzo[d]isothiazol-3-yl-piperazin-1-yl)-(2-morpholin-4-yl-5-nitro-phenyl) -methanone] | 467 |
| CC(C)Oc1ccc(S(C)(=O)=O)cc1C(=O)N1CCN(c2nc3c([N+](=O)[O-])cccc3s2)CC1 [Example 1.12, (2-Isopropoxy-5-methanesulfonyl-phenyl)-[4-(4-nitro-benzothiazol-2-yl)-piperazin-1-yl]-methanone] | 375 |
| CC(C)COc1ccc(S(C)(=O)=O)cc1C(=O)N1CCN(c2ccc3ccccc3n2)CC1 [Example 1.19, (2-Isobutoxy-5-methanesulfonyl-phenyl)-(4-quinolin-2-yl-piperazin-1-yl)-methanone] | 78 |
| CS(=O)(=O)c1ccc(OC2CCCC2)c(C(=O)N2CCN(c3ccc4cc(Cl)ccc4n3)CC2)c1 [Example 1.22, [4-(6-Chloro-quinolin-2-yl)-piperazin-1-yl]-(2-cyclopentyloxy-5-methanesulfonyl-phenyl)-methanone] | 399 |
| CC(C)Oc1ccc(S(C)(=O)=O)cc1C(=O)N1CCN(c2nsc3ccccc23)CC1 [Example 1.29, (4-Benzo [d]isothiazol-3-yl-piperazin-1-yl)-(2-isopropoxy-5-methanesulfonyl-phenyl) -methanone] | 500 |
| CC(C)COc1ccc(S(C)(=O)=O)cc1C(=O)N1CCN(c2cnc3ccccc3n2)CC1 [Example 1.23, (2-Isobutoxy-5-methanesulfonyl-phenyl)-(4-quinoxalin-2-yl-piperazin-1-yl)-methanone] | 167 |
| Cc1nc2cc(N3CCN(C(=O)c4cc(S(C)(=O)=O)ccc4OCC(C)C)CC3)ccc2s1 [Example 1.17, (2-Isobutoxy-5-methanesulfonyl-phenyl)-[4-(2-methyl-benzothiazol-5-yl)-piperazin-1-yl]-methanone] | 440 |
| CC(C)Oc1ccc(S(C)(=O)=O)cc1C(=O)N1CCN(c2nc3ccc([N+](=O)[O-])cc3s2)CC1 [Example 1.9, (2-Isopropoxy-5-methanesulfonyl-phenyl)-[4-(6-nitro-benzothiazol-2-yl)-piperazin-1-yl]-methanone] | 206 |

More lines, now with the values ahead:

| IC50 [nM] | SMILES |
| --- | --- |
| 39 | C[C@H](Oc1ccc(S(C)(=O)=O)cc1C(=O)N1CCN(c2nc3ccc(Cl)cc3s2)CC1)C(F)(F)F [Example 1.40, [4-(6-Chloro-benzothiazol-2-yl)-piperazin-1-yl]-[5-methanesulfonyl-2-((S)-2,2,2-trifluoro-1methyl-ethoxy)-phenyl]-methanone] |
| 148 | COc1cccc2sc(N3CCN(C(=O)c4cc(S(C)(=O)=O)ccc4OC(C)C)CC3)nc12 [Example 1.11, (2-Isopropoxy-5-methanesulfonyl-phenyl)-[4-(4-methoxy-benzothiazol-2-yl)-piperazin-1-yl]-methanone] |
| 158 | CC(C)Oc1ccc(S(C)(=O)=O)cc1C(=O)N1CCN(c2nc3c(O)cccc3s2)CC1 [Example 1.13, [4-(4-Hydroxy-benzothiazol-2-yl)-piperazin-1-yl]-(2-isopropoxy-5-methanesulfonyl-phenyl)-methanone] |
| 55 | C[C@H](Oc1ccc(S(C)(=O)=O)cc1C(=O)N1CCN(c2nsc3ccccc23)CC1)C(F)(F)F [Example 1.33, (4-Benzo[d]isothiazol-3-yl-piperazin-1-yl)-[5-methanesulfonyl-2-((S)-2,2,2-trifluoro-1-methyl-ethoxy)-phenyl]-methanone] |
| 67 | CS(=O)(=O)c1ccc(OC2CCCC2)c(C(=O)N2CCN(c3cnc4ccccc4n3)CC2)c1 [Example 1.25, (2-Cyclopentyloxy-5-methanesulfonyl-phenyl)-(4-quinoxalin-2-yl-piperazin-1-yl)-methanone] |
| 97 | CS(=O)(=O)c1ccc(OC2CCCC2)c(C(=O)N2CCN(c3nc4ccccc4o3)CC2)c1 [Example 1.4, (4-Benzoxazol-2-yl-piperazin-1-yl)-(2-cyclopentyloxy-5-methanesulfonyl-phenyl)-methanone] |
| 149 | CS(=O)(=O)c1ccc(OC2CCCC2)c(C(=O)N2CCN(c3cnc4ccccc4c3)CC2)c1 [Example 1.28, (2-Cyclopentyloxy-5-methanesulfonyl-phenyl)-(4-quinolin-3-yl-piperazin-1-yl)-methanone] |
